Results published in ChEMBL document CHEMBL3046349, “Novel Mechanisms of Drug Action: Functional Selectivity at D2 Dopamine Receptors” (Med Chem Res, 2004).

Species on record: Rattus norvegicus
Assay: Selectivity ratio of K0.5 for Rattus norvegicus Sprague-Dawley (rat) striatum dopamine D2 receptor to K0.5 for Sprague-Dawley Rattus norvegicus (rat) striatum dopamine D1 receptor
Assay type: tissue-based

## Oc1cc2c(cc1O)[C@H]1c3ccccc3CN[C@@H]1CC2 (relative stereo)
  Ratio: 10
